The record followed here is PMC7201278, “A structural study of TatD from Staphylococcus aureus elucidates a putative DNA-binding mode of a Mg^2+-dependent nuclease” (IUCrJ, 2020).

The target of one test is T1, SaTatD (SAV0491) (Staphylococcus aureus, UniProt W8U6D8).
T1 construct: gene yabD
Particulars: two phosphates per monomer in active site, coordinated to two Ni2+; SeMet-derived protein; 2.4 M sodium malonate pH 7.0, 20°C.

Test [1] concerns the target SaTatD (SAV0491), TatD-like DNase from Staphylococcus aureus (Mu50 strain) (Staphylococcus aureus (Mu50 strain)). Put plainly: SEC; analytical gel filtration, Superdex 200 (10/300 GL), buffer A (20 mM Tris, 150 mM NaCl pH 8.0), 0.5 ml/min, gel-filtration standards; SaTatD at 20.0 mg/ml (high concentration). A general note: In gel filtration, larger molecules generally elute earlier.

As for `O=P(O)(O)O` [phosphate], the “X-ray crystal structure (SAD, 1.85 Å)” value on SaTatD (SAV0491) is “Polar interactions were also observed between the two phosphates and the surface residues of SaTatD”.

Broadly, the stoichiometry N is a count of units in the complex or per binding partner. In test [1], “SaTatD (SAV0491), TatD-like DNase from Staphylococcus aureus (Mu50 strain) (enzyme)” yielded a stoichiometry N of 2.
